Laboratory results from patent US20240000872A1, “NOVEL BACTERIOPHAGE THAT LYSES ACINETOBACTER GENUS BACTERIA HAVING RESISTANCE TO ANTIBIOTICS” (priority 2020, published 2024).

Tested on: Acinetobacter baumannii strains
Experiment: Antibiotic susceptibility test (CLSI disk diffusion test method, read per CLSI 2016); as to antibiotic susceptibility S/I/R: key: ‘S’ means susceptible; ‘I’ means intermediate; ‘R’ means resistant
Format: cell-based
Set-up: antibiotic susceptibility test value / susceptibility test value (number given before S/I/R) / antibiotic susceptibility value: unit not given here

SMILES: CCN1CCN(C(=O)N[C@@H](C(=O)N[C@@H]2C(=O)N3[C@@H]2SC(C)(C)[C@@H]3C(=O)O)c2ccccc2)C(=O)C1=O [Piperalillinc]
- antibiotic susceptibility S/I/R (host strain YMC14/06/R2359): R
- antibiotic susceptibility value (host strain YMC14/06/R2359): 128
- antibiotic susceptibility S/I/R (host strain YMC14/08/R1169): R
- antibiotic susceptibility value (host strain YMC14/08/R1169): 128
- antibiotic susceptibility S/I/R (host strain YMC14/08/T90): R
- antibiotic susceptibility value (host strain YMC14/08/T90): 128
- antibiotic susceptibility S/I/R (host strain YMC15/02/R436): R
- antibiotic susceptibility value (host strain YMC15/02/R436): 128
- antibiotic susceptibility S/I/R (host strain YMC15/02/T28): R
- antibiotic susceptibility value (host strain YMC15/02/T28): 128
- antibiotic susceptibility S/I/R (host strain YMC15/03/R1604): R
- antibiotic susceptibility value (host strain YMC15/03/R1604): 128
- antibiotic susceptibility S/I/R (host strain YMC15/09/R1869): R
- antibiotic susceptibility value (host strain YMC15/09/R1869): 128
- antibiotic susceptibility S/I/R (host strain YMC16/01/P11): R
- antibiotic susceptibility value (host strain YMC16/01/P11): 128
- antibiotic susceptibility S/I/R (host strain YMC16/01/R123): R
- antibiotic susceptibility value (host strain YMC16/01/R123): 128
- antibiotic susceptibility S/I/R (host strain YMC16/01/R198): R
- antibiotic susceptibility value (host strain YMC16/01/R198): 128
- antibiotic susceptibility S/I/R (host strain YMC16/01/R353): R
- antibiotic susceptibility value (host strain YMC16/01/R353): 128
- antibiotic susceptibility S/I/R (host strain YMC16/01/R380): R
- antibiotic susceptibility value (host strain YMC16/01/R380): 128
- antibiotic susceptibility S/I/R (host strain YMC16/01/R397): R
- antibiotic susceptibility value (host strain YMC16/01/R397): 128
- antibiotic susceptibility S/I/R (host strain YMC16/01/R405): R
- antibiotic susceptibility value (host strain YMC16/01/R405): 128
- antibiotic susceptibility S/I/R (host strain YMC16/03/R4461): R
- antibiotic susceptibility value (host strain YMC16/03/R4461): 128
- antibiotic susceptibility S/I/R (host strain YMC16/05/R2210): R
- antibiotic susceptibility value (host strain YMC16/05/R2210): 128
- antibiotic susceptibility S/I/R (host strain YMC16/07/R2512): R
- antibiotic susceptibility value (host strain YMC16/07/R2512): 128
- antibiotic susceptibility S/I/R (host strain YMC16/09/R2471): R
- antibiotic susceptibility value (host strain YMC16/09/R2471): 128
- antibiotic susceptibility S/I/R (host strain YMC16/10/R2537): R
- antibiotic susceptibility value (host strain YMC16/10/R2537): 128
- antibiotic susceptibility S/I/R (host strain YMC16/12/B11422): R
- antibiotic susceptibility value (host strain YMC16/12/B11422): 128
- antibiotic susceptibility S/I/R (host strain YMC16/12/B11449): R
- antibiotic susceptibility value (host strain YMC16/12/B11449): 128
- antibiotic susceptibility S/I/R (host strain YMC16/12/B13325): R
- antibiotic susceptibility value (host strain YMC16/12/B13325): 128
- antibiotic susceptibility S/I/R (host strain YMC16/12/P503): R
- antibiotic susceptibility value (host strain YMC16/12/P503): 128
- antibiotic susceptibility S/I/R (host strain YMC16/12/R4637): R
- antibiotic susceptibility value (host strain YMC16/12/R4637): 128
- antibiotic susceptibility S/I/R (host strain YMC17/01/B8053): R
- antibiotic susceptibility value (host strain YMC17/01/B8053): 128
- antibiotic susceptibility S/I/R (host strain YMC17/01/B10087): R
- antibiotic susceptibility value (host strain YMC17/01/B10087): 128
- antibiotic susceptibility S/I/R (host strain YMC17/01/B12075): R
- antibiotic susceptibility value (host strain YMC17/01/B12075): 128
- antibiotic susceptibility S/I/R (host strain YMC17/01/B13454): R
- antibiotic susceptibility value (host strain YMC17/01/B13454): 128
- antibiotic susceptibility S/I/R (host strain YMC17/01/P518): R
- antibiotic susceptibility value (host strain YMC17/01/P518): 128
- antibiotic susceptibility S/I/R (host strain YMC17/01/R2812): R
- antibiotic susceptibility value (host strain YMC17/01/R2812): 128
- antibiotic susceptibility S/I/R (host strain YMC17/02/B14): R
- antibiotic susceptibility value (host strain YMC17/02/B14): 128
- antibiotic susceptibility S/I/R (host strain YMC17/02/B87): R
- antibiotic susceptibility value (host strain YMC17/02/B87): 128
- antibiotic susceptibility S/I/R (host strain YMC17/02/B721): R
- antibiotic susceptibility value (host strain YMC17/02/B721): 128
- antibiotic susceptibility S/I/R (host strain YMC17/02/B4039): R
- antibiotic susceptibility value (host strain YMC17/02/B4039): 128
- antibiotic susceptibility S/I/R (host strain YMC17/02/B4520): R
- antibiotic susceptibility value (host strain YMC17/02/B4520): 128
- antibiotic susceptibility S/I/R (host strain YMC17/02/B4864): S
- antibiotic susceptibility value (host strain YMC17/02/B4864): 8
- antibiotic susceptibility S/I/R (host strain YMC17/02/B8414): R
- antibiotic susceptibility value (host strain YMC17/02/B8414): 128
- antibiotic susceptibility S/I/R (host strain YMC17/02/P523): R
- antibiotic susceptibility value (host strain YMC17/02/P523): 128
- antibiotic susceptibility S/I/R (host strain YMC17/02/R541): R
- antibiotic susceptibility value (host strain YMC17/02/R541): 128
- antibiotic susceptibility S/I/R (host strain YMC17/02/R2392): R
- antibiotic susceptibility value (host strain YMC17/02/R2392): 128
- antibiotic susceptibility S/I/R (host strain YMC17/03/B4730): R
- antibiotic susceptibility value (host strain YMC17/03/B4730): 128
- antibiotic susceptibility S/I/R (host strain YMC17/03/B5000): R
- antibiotic susceptibility value (host strain YMC17/03/B5000): 128
- antibiotic susceptibility S/I/R (host strain YMC17/03/P971): R
- antibiotic susceptibility value (host strain YMC17/03/P971): 128
- antibiotic susceptibility S/I/R (host strain YMC17/03/R348): R
- antibiotic susceptibility value (host strain YMC17/03/R348): 128
- antibiotic susceptibility S/I/R (host strain YMC17/03/R585): R
- antibiotic susceptibility value (host strain YMC17/03/R585): 128
- antibiotic susceptibility S/I/R (host strain YMC17/03/R1888): R
- antibiotic susceptibility value (host strain YMC17/03/R1888): 128
- antibiotic susceptibility S/I/R (host strain YMC17/03/R3279): R
- antibiotic susceptibility value (host strain YMC17/03/R3279): 128
- antibiotic susceptibility S/I/R (host strain YMC17/03/R4077): R
- antibiotic susceptibility value (host strain YMC17/03/R4077): 128
- antibiotic susceptibility S/I/R (host strain YMC17/03/R4607): R
- antibiotic susceptibility value (host strain YMC17/03/R4607): 128
- antibiotic susceptibility S/I/R (host strain YMC17/04/R488): R
- antibiotic susceptibility value (host strain YMC17/04/R488): 128
- antibiotic susceptibility S/I/R (host strain YMC17/04/R640): R
- antibiotic susceptibility value (host strain YMC17/04/R640): 128
- antibiotic susceptibility S/I/R (host strain YMC/17/05/R1095): R
- antibiotic susceptibility value (host strain YMC/17/05/R1095): 128
